From patent US20220017623A1, “TREATMENT OF CANCER USING A CEA CD3 BISPECIFIC ANTIBODY AND A WNT SIGNALING INHIBITOR” (Hoffmann-La Roche Inc., priority 2019, published 2022)

Legend:
[1] = test system: patient derived colorectal cancer organoids (PDOs); assay: allogeneic CD8 T cell co-culture assay with patient derived colorectal cancer organoids, GFP confluence growth assessment; assay type: cell-based, human; conditions: CEAhi PDO CRC-01; E:T 2:1; 20 nM
Method: In order to assess the sensitivity of patient-derived colorectal cancer organoids (PDOs) to cibisatamab immunotherapy, eight patient derived colorectal cancer organoid lines with various cell surface CEA expression levels were generated and treated with cibisatamab (20 nM) or an untargeted control antibody (20 nM) during 10 days of co-culture with allogeneic CD8 T cells. CD8 T cells were isolated from allogeneic healthy donor peripheral blood mononuclear cells (PBMCs) by magnetic bead sorting and expanded in vitro with IL2 and CD3/CD28 beads for 7-14 days. GFP-tagged CRC PDO cells were then seeded in 96 well plates, T cells were added the following day and the co-cultures were imaged every 2-3 days on an automated 96 well plate fluorescence microscope. […] Co-culture with CD8 T cells without any antibody was included as a further control to enable the identification of alloreactive donor T cells. […]
PDOs were harvested with TrypLE Express and neutralised with DMEM/F12 Ham medium (Sigma Aldrich) with 10% FBS. Cells were filtered through a 70 μm filter, counted and resuspended in phenol-red free RPMI medium (Thermo Fisher) supplemented with 10% FBS (Biosera), 1× Glutamax and 100 units penicillin-streptomycin. […]
The GFP confluence was quantified every 48h-72h over a 10-day period using the GFP confluence application on the Celigo Imaging Cytometer (Nexcelom Bioscience). […]

[2] = test system: cell surface CEA expression of colorectal cancer organoid lines; assay: Wnt/β-catenin pathway inhibition assay: cell surface CEA expression of PDOs by flow cytometry; assay type: cell-based, human; conditions: PDOs with mixed CEA expression; 10 μM for 3 days; FACS
Method: Two PDO lines with mixed CEA expression were treated with an inhibitor of WNT signalling: the tankyrase inhibitor compound 21 which inhibits the downstream WNT/β-catenin pathway by stabilizing the β-catenin destruction complex (Elliott et al., Med Chem Comm. 2015; 6(9):1687-92; Mariotti et al., Br J Pharmacol. 2017; 174(24):4611-36).
Cell lines were harvested using enzyme-free Cell Dissociation Buffer (Thermo Fisher) and PDOs with TrypLE Express (Gibco). 2×10^5 cells were stained with 20 nM of the human anti-human CEA antibody CH1A1A (Roche) and 25 ug/ml of the R-Phycoerythrin conjugated secondary antibody AffiniPure F(ab′)2 Fragment Goat Anti-Human IgG, Fcγ Fragment Specific (Stratech). DRAQ7 (Biostatus) staining was included for dead cell exclusion. CEA expression was analysed on a Sony SH800 flow cytometer. Gate boundaries were set at the trough between high and low CEA populations in PDOs with mixed CEA expression and identical gates were used across all samples. The percentage of CEAhi and CEAlo populations and mean fluorescence intensities (MFI) were calculated for each PDO.
10^5 PDO cells/well were seeded in 12 well plates and allowed to attach overnight. […] Cells were harvested using TrypLE Express, stained for CEA with the CH1A1A primary antibody and the R-Phycoerythrin conjugated secondary antibody and analyzed by FACS as described above.

| Compound | growth suppression activity of T cells in the presence of antibody [1] | effect on CEA expression and CEAhi subpopulation [2] |
| --- | --- | --- |
| DP47-TCB: untargeted antibody used as a negative control [reference compound] | no activity |  |
| Cc1cc(-c2ncc(CC(=O)Nc3ccc(-c4cnccn4)cn3)cc2C)ccn1 [LGK-974] |  | increase in CEA expression and the CEAhi subpopulation |
